From US20070015702A1, “Method of treatment and/or prevention of neuropathic pain” (Asahi Kasei Pharma Corporation, priority 2005, published 2007)
Where two headings read alike, the source gives them in different places.

Experiments:
[1] = system: chronic constriction injury model (CCI model); assay: Intermittent subcutaneous administration of elcatonin in CCI model, nociceptive threshold; type: in vivo, rat
Protocol: On the 12th day or later after the constriction operation, ECT or vehicle was administered subcutaneously at 0.05 ml/B.W.100 g.

[2] = system: chronic constriction injury model (CCI model)
Text: Under anesthesia with ether, a rat was placed in prone position, and while touching the right femur, the skin was dissected right above it. Biceps femoris was peeled at the center of the femur, and exposed by about 5 mm trying not to injure the sciatic nerve. Using 4-0 blade silk, the sciatic nerve was liegted loosely 4 times in turn from the peripheral side. Thereafter, the fascia and the skin were sutured.
Using withdrawal threshold and body weight on the 8th day after the constriction operation as indices, the rats were divided into a CCI-vehicle group (12 rats), and CCI-ECT 0.75 mU/kg/week, CCI-ECT 7.5 mU/kg/week and CCI-ECT 75 mU/kg/week groups (each 12 rats), by a randomization method (SAS system, version 8.2). […] Body weight used for administration was estimated body weight after initiation of administration and calculated by multiplying body weight at start of administration by body weight increase coefficient (1.1) obtained in the preliminary experiment. […]
First, the position of a pressure needle was controlled to confirm that an arm was horizontal to the thickness of a rat leg. […] When the rat withdrew the limb, the foot pedal was released, and a numerical value 0 to 25) of the moving matter on a scale was read. The read numerical value was multiplied by 20, to convert into pressed weight (withdrawal threshold). […]

[3] = system: chronic constriction injury model (CCI model); assay: Continuous administration of elcatonin in CCI model, hyperalgesia, withdrawal latency (BASILE Plantar Test); type: in vivo, rat
Protocol: An apparatus measures a time (withdrawal latency) until escaping after giving nociceptive heat stimulus to a posterior limb in a rat under unrestrained condition. Right hindlimb was measured as a measurement leg. Initially, a rat was placed in an acryl box on a glass plate, and domesticated for about 5 minutes. Amoving type I.R (infrared) generator (I.R. vessel) was placed under the glass plate, and “sight” cross (I.R. irradiation position) inscribed on an upper panel of the I.R. vessel was adjusted to inside of six pads on the right hind paw. In this procedure, contact of the glass plate and hind paw was confirmed. Subsequently, a start key was pushed and heat stimulation was imparted, and withdrawal latency for escaping behavior of a rat of withdrawing limb was measured. When escaping behavior is caused, a switch is automatically turned off, and reaction time is counted. […] Measurement was carried out under clean condition so that there was no feces and no urine on the glass plate.

[4] = Shinyaku to Rinsho, 1990, vol. 39, no. 2; cited from earlier work
[5] = rat, in vivo, sc
Protocol: Measurement of serum calcium value was conducted using calcium C-test wako (Wako).

1-butylic acid-7-(L-2-aminobutylic acid)-26-L-aspartic acid-27-L-valine-29-L-alaninecalcitonin [elcatonin]
analgesic action (nociceptive threshold) ([1]; 15 U/kg s.c. 3 times a week): a significant action was not observed
day after initiation of administration from which the threshold initiated to recover ([1]; 15 U/kg s.c. 5 times a week): 4 days
effect on nociceptive threshold until 3-rd day after initiation of administration ([1]; 15 U/kg s.c. intermittent, 3 or 5 times a week): an effect was not observed
manifestation of analgesic effect ([1]; intermittent administration, dose further increased): delay of manifestation of an analgesic effect was not improved
time after initiation of administration at which significant analgesic action was recognized ([2]; continuous s.c. administration, CCI rats): 16 h
analgesic action (nociceptive threshold) ([2]; continuous s.c. mini osmotic pump, 0.75, 7.5, 75 mU/kg/week, from 11th day after constriction operation, vs vehicle group, Williams test): significant analgesic action
extent of analgesic action across dose range ([3]; 0.00075-75 U/kg/week continuous): approximately constant
analgesic action on continued administration ([3]; administration continued for 2 weeks): continuance of an analgesic action
analgesic action (withdrawal latency) ([3]; next day after initiation of continuous administration (12th day after operation), 0.00075, 0.0075, 0.075, 7.5, 75 U/kg/week, vs vehicle group): significant analgesic action was confirmed in all elcatonin administration groups

calcitonin
ratio of calcitonin dose altering serum calcium value, rat versus human [4]: 25 fold
maximum effective dose of neuropathic pain treatment by continuous administration ([3]; Example 2, rat): 75 U/kg/week
maximum effective dose of neuropathic pain treatment by continuous administration, in terms of second ([3]; Example 2, rat): 0.124 mU/kg/second
dose per unit time (second) at which serum calcium value changed (serum calcium alteration threshold) [5]: 15 mU/kg/second
